Among the data in US20110218189A1, “PYRROLO[2,3-d]PYRIMIDIN-2-YL-AMINE DERIVATIVES AS PKC-THETA INHIBITORS” (N.V. ORGANON, priority 2008, published 2011) are IC50 values, retold here.

The structures appear in SMILES notation.

The target of the experiment is T1, His-tagged human recombinant active PKC theta (Homo sapiens, UniProt Q04759).
T1 construct: His; made in house
T1 sequence (Q04759 whole entry): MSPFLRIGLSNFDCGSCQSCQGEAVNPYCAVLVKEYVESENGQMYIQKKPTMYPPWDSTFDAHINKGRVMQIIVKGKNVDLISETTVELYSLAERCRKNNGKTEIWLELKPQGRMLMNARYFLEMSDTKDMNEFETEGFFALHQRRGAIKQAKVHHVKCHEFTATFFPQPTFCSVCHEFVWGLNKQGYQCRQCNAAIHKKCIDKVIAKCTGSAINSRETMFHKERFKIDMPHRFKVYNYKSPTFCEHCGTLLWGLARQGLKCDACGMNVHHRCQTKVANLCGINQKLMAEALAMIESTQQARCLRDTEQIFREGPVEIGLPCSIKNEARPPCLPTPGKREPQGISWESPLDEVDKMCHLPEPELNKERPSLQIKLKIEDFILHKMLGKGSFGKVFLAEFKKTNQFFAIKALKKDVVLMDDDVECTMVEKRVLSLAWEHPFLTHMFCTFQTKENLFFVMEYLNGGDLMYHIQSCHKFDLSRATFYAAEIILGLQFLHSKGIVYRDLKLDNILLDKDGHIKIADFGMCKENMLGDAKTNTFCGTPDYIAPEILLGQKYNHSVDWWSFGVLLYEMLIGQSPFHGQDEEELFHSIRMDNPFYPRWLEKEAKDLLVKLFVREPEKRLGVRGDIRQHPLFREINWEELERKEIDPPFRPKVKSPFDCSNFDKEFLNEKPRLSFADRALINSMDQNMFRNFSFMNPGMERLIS
The experiment in a line: IMAP fluorescence polarization assay, inhibition of PKC theta kinase activity. The class given is biochemical. Conditions: ATP 10 μM, peptide substrate 50 nM, 60 minutes at 30° C.; read-out: IC50 IMAP PKCθ. On the procedure:
Inhibition of PKC theta kinase activity was measured using an Immobilized Metal for Phosphochemicals—based coupled assay (IMAP). IMAP is a homogeneous fluorescence polarization (FP) assay based on affinity capture of phosphorylated peptide substrates. IMAP uses fluorescein-labeled peptide substrates that, upon phosphorylation by a protein kinase, bind to so called IMAP nanoparticles, which are derivatized with trivalent metal complexes. Such binding causes a change in the rate of the molecular motion of the peptide, and results in an increase in the FP value observed for the fluorescein label attached to the substrate peptide. In this assay, PKC theta directly phosphorylates the fluorescein-labeled peptide substrate.
Enzymes, substrate and ATP are diluted at all steps in Kinase Reaction buffer (10 mM Tris-HCl, 10 mM MgCl2, 0.01% Tween-20, 0.05% NaN3 pH 7.2, 1 mM DTT). The final volume at the kinase reaction step of the assay in the 384-well plate is 20 μl. The concentrations presented within brackets are final concentrations. First, compounds or DMSO (1%) are added to the wells. Thereafter, peptide substrate (Pseudosubstrate LHQRRGSIKQAKVHHVK-FL, Neosystem, 50 nM) and ATP (10 μM) are added followed by the addition of the PKC theta enzyme (His-tagged human recombinant active PKC theta, 82 kDa, in-house purified, 10 ng/ml), and the mix is incubated for 60 minutes at 30° C. in the dark. Then IMAP progressive binding buffer (100% 1× buffer A, 1:400 Progressive Binding Reagent; Molecular Devices) is added followed by an incubation step of 60 minutes at room temperature in the dark. Finally, the FP signal is read.
In general terms: Polarisation of emitted light reports the rotation of a fluorescent probe.
The IC50 is the concentration needed to halve the response being measured. On to `Fc1ccc(CNc2ncc3cc(-c4ccccc4Cl)n(C[C@@H]4CCCNC4)c3n2)cc1F` [Example 1.1, (R)-6-(2-chlorophenyl)-N-(3,4-difluorobenzyl)-7-(piperidin-3-ylmethyl)-7H-pyrrolo[2,3-d]pyrimidin-2-amine], for which the IC50 was under 10 nM.

As for `Oc1ccc(CNc2ncc3cc(-c4ccccc4Cl)n(C[C@@H]4CCCNC4)c3n2)cc1` [Example 1.2, (R)-4-((6-(2-chlorophenyl)-7-(piperidin-3-ylmethyl)-7H-pyrrolo[2,3-d]pyrimidin-2-ylamino)methyl)phenol], the IC50 is 10 to 100 nM.

With `Oc1cccc(CNc2ncc3cc(-c4ccccc4Cl)n(C[C@@H]4CCCNC4)c3n2)c1` [Example 1.3, (R)-3-((6-(2-chlorophenyl)-7-(piperidin-3-ylmethyl)-7H-pyrrolo[2,3-d]pyrimidin-2-ylamino)methyl)phenol], the IC50 lay within 10 to 100 nM.

Take `Oc1ccc(CNc2ncc3cc(-c4ccccc4Cl)n(C[C@@H]4CCCNC4)c3n2)cc1F` [Example 1.4, (R)-4-((6-(2-chlorophenyl)-7-(piperidin-3-ylmethyl)-7H-pyrrolo[2,3-d]pyrimidin-2-ylamino)methyl)-2-fluorophenol]: the half-maximal inhibitory concentration (IC50) was under 10 nM.

With `Oc1cccc(CNc2ncc3cc(-c4c(Cl)cccc4Cl)n(C[C@@H]4CCCNC4)c3n2)c1` [Example 2.1, (R)-3-((6-(2,6-dichlorophenyl)-7-(piperidin-3-ylmethyl)-7H-pyrrolo[2,3-d]pyrimidin-2-ylamino)methyl)phenol], the 50% inhibitory concentration (IC50) was under 10 nM.

Take `Fc1ccc(CNc2ncc3cc(-c4c(Cl)cccc4Cl)n(C[C@@H]4CCCNC4)c3n2)cc1F` [Example 2.2, (R)-6-(2,6-dichlorophenyl)-N-(3,4-difluorobenzyl)-7-(piperidin-3-ylmethyl)-7H-pyrrolo[2,3-d]pyrimidin-2-amine]: the IC50 was under 10 nM.

In the case of `Oc1ccc(CNc2ncc3cc(-c4c(Cl)cccc4Cl)n(C[C@@H]4CCCNC4)c3n2)cc1` [Example 2.3, (R)-4-((6-(2,6-dichlorophenyl)-7-(piperidin-3-ylmethyl)-7H-pyrrolo[2,3-d]pyrimidin-2-ylamino)methyl)phenol], the 50% inhibitory concentration (IC50) lay in the range of 100 to 10000 nM.

As for `COc1ccc(CNc2ncc3cc(-c4c(Cl)cccc4Cl)n(C[C@@H]4CCCNC4)c3n2)cc1F` [Example 2.4, (R)-6-(2,6-dichlorophenyl)-N-(3-fluoro-4-methoxybenzyl)-7-(piperidin-3-ylmethyl)-7H-pyrrolo[2,3-d]pyrimidin-2-amine], the IC50 is under 10 nM.

On to `Fc1cccc(CNc2ncc3cc(-c4c(Cl)cccc4Cl)n(C[C@@H]4CCCNC4)c3n2)c1` [Example 2.5, (R)-6-(2,6-dichlorophenyl)-N-(3-fluorobenzyl)-7-(piperidin-3-ylmethyl)-7H-pyrrolo[2,3-d]pyrimidin-2-amine], for which the IC50 is under 10 nM.

On to `Clc1cccc(Cl)c1-c1cc2cnc(NCc3ccccc3)nc2n1C[C@@H]1CCCNC1` [Example 2.6, (R)-N-benzyl-6-(2,6-dichlorophenyl)-7-(piperidin-3-ylmethyl)-7H-pyrrolo[2,3-d]pyrimidin-2-amine], for which the IC50 is under 10 nM.

In the case of `Cc1c(-c2ccccc2Cl)n(C[C@@H]2CCCNC2)c2nc(NCc3ccc(F)c(F)c3)ncc12` [Example 3.1, (R)-6-(2-chlorophenyl)-N-(3,4-difluorobenzyl)-5-methyl-7-(piperidin-3-ylmethyl)-7H-pyrrolo[2,3-d]pyrimidin-2-amine], the half-maximal inhibitory concentration (IC50) was 10 to 100 nM.

Turning to `Cc1c(-c2c(Cl)cccc2Cl)n(C[C@@H]2CCCNC2)c2nc(NCc3ccc(F)c(F)c3)ncc12` [Example 3.2, (R)-6-(2,6-dichlorophenyl)-N-(3,4-difluorobenzyl)-5-methyl-7-(piperidin-3-ylmethyl)-7H-pyrrolo[2,3-d]pyrimidin-2-amine], the IC50 was under 10 nM.

`Cc1c(-c2ccccc2)n(C[C@@H]2CCCNC2)c2nc(NCc3ccc(F)c(F)c3)ncc12` [Example 3.3, (R)—N-(3,4-difluorobenzyl)-5-methyl-6-phenyl-7-(piperidin-3-ylmethyl)-7H-pyrrolo[2,3-d]pyrimidin-2-amine]: the IC50 is 100 to 10000 nM.

For the molecule `Fc1ccc(CNc2ncc3cc(-c4ccccc4Cl)n(C[C@H]4CCCNC4)c3n2)cc1F` [Example 4.1, (S)-6-(2-chlorophenyl)-N-(3,4-difluorobenzyl)-7-(piperidin-3-ylmethyl)-7H-pyrrolo[2,3-d]pyrimidin-2-amine], the half-maximal inhibitory concentration (IC50) was 10 to 100 nM.

On to `Fc1ccc(CNc2ncc3cc(-c4ccccc4Cl)n(C[C@@H]4CCNC4)c3n2)cc1F` [Example 4.2, (R)-6-(2-chlorophenyl)-N-(3,4-difluorobenzyl)-7-(pyrrolidin-3-ylmethyl)-7H-pyrrolo[2,3-d]pyrimidin-2-amine], for which the IC50 lay in the range of 100 to 10000 nM.

`Fc1ccc(CNc2ncc3cc(-c4ccccc4Cl)n(C[C@H]4CCNC4)c3n2)cc1F` [Example 4.3, (S)-6-(2-chlorophenyl)-N-(3,4-difluorobenzyl)-7-(pyrrolidin-3-ylmethyl)-7H-pyrrolo[2,3-d]pyrimidin-2-amine]: the IC50 fell in the range of 10 to 100 nM.

As for `Fc1ccc(CNc2ncc3cc(-c4ccccc4Cl)n(CC4CNCCO4)c3n2)cc1F` (stereo not shown) [Example 4.4, 6-(2-chlorophenyl)-N-(3,4-difluorobenzyl)-7-(morpholin-2-ylmethyl)-7H-pyrrolo[2,3-d]pyrimidin-2-amine], the IC50 fell in the range of 10 to 100 nM.

For `Cc1ccc(-c2cc3cnc(NCc4ccc(F)c(F)c4)nc3n2C[C@@H]2CCCNC2)c(Cl)c1` [Example 5.1, (R)-6-(2-chloro-4-methylphenyl)-N-(3,4-difluorobenzyl)-7-(piperidin-3-ylmethyl)-7H-pyrrolo[2,3-d]pyrimidin-2-amine], the IC50 is under 10 nM.

As for `COc1ccc(-c2cc3cnc(NCc4ccc(F)c(F)c4)nc3n2C[C@@H]2CCCNC2)c(Cl)c1` [Example 5.2, (R)-6-(2-chloro-4-methoxyphenyl)-N-(3,4-difluorobenzyl)-7-(piperidin-3-ylmethyl)-7H-pyrrolo[2,3-d]pyrimidin-2-amine], the IC50 was 10 to 100 nM.

As to `Oc1ccc(-c2cc3cnc(NCc4ccc(F)c(F)c4)nc3n2C[C@@H]2CCCNC2)c(Cl)c1` [Example 5.3, (R)-3-chloro-4-(2-(3,4-difluorobenzylamino)-7-(piperidin-3-ylmethyl)-7H-pyrrolo[2,3-d]pyrimidin-6-yl)phenol], the IC50 was under 10 nM.

For `Fc1ccc(CNc2ncc3cc(-c4ccc(Cl)cc4Cl)n(C[C@@H]4CCCNC4)c3n2)cc1F` [Example 5.4, (R)-6-(2,4-dichlorophenyl)-N-(3,4-difluorobenzyl)-7-(piperidin-3-ylmethyl)-7H-pyrrolo[2,3-d]pyrimidin-2-amine], the IC50 was 10 to 100 nM.

Turning to `Fc1cc(Cl)c(-c2cc3cnc(NCc4ccc(F)c(F)c4)nc3n2C[C@@H]2CCCNC2)c(Cl)c1` [Example 5.5, (R)-6-(2,6-dichloro-4-fluorophenyl)-N-(3,4-difluorobenzyl)-7-(piperidin-3-ylmethyl)-7H-pyrrolo[2,3-d]pyrimidin-2-amine], the IC50 is under 10 nM.

As for `Oc1ccc(CNc2ncc3cc(-c4c(Cl)cccc4Cl)n(C[C@@H]4CCCNC4)c3n2)cc1Cl` [Example 6.1, (R)-2-chloro-4-((6-(2,6-dichlorophenyl)-7-(piperidin-3-ylmethyl)-7H-pyrrolo[2,3-d]pyrimidin-2-ylamino)methyl)phenol], the IC50 was under 10 nM.

For `Oc1ccc(CNc2ncc3cc(-c4c(Cl)cccc4Cl)n(C[C@@H]4CCCNC4)c3n2)cc1F` [Example 6.2, (R)-4-((6-(2,6-dichlorophenyl)-7-(piperidin-3-ylmethyl)-7H-pyrrolo[2,3-d]pyrimidin-2-ylamino)methyl)-2-fluorophenol], the IC50 was under 10 nM.

For `N#Cc1c(-c2c(Cl)cccc2Cl)n(C[C@@H]2CCCNC2)c2nc(NCc3ccc(F)c(F)c3)ncc12` [Example 7.1, (R)-6-(2,6-dichlorophenyl)-2-(3,4-difluorobenzylamino)-7-(piperidin-3-ylmethyl)-7H-pyrrolo[2,3-d]pyrimidine-5-carbonitrile], the half-maximal inhibitory concentration (IC50) was under 10 nM.

For the molecule `Fc1ccc(CNc2ncc3c(F)c(-c4c(Cl)cccc4Cl)n(C[C@@H]4CCCNC4)c3n2)cc1F` [Example 7.2, (R)-6-(2,6-dichlorophenyl)-N-(3,4-difluorobenzyl)-5-fluoro-7-(piperidin-3-ylmethyl)-7H-pyrrolo[2,3-d]pyrimidin-2-amine], the IC50 is under 10 nM.

As to `Fc1ccc(CNc2ncc3c(Br)c(-c4c(Cl)cccc4Cl)n(C[C@@H]4CCCNC4)c3n2)cc1F` [Example 7.3, (R)-5-bromo-6-(2,6-dichlorophenyl)-N-(3,4-difluorobenzyl)-7-(piperidin-3-ylmethyl)-7H-pyrrolo[2,3-d]pyrimidin-2-amine], the IC50 was under 10 nM.

As for `Fc1ccc(CNc2ncc3cc(-c4c(Cl)cccc4Cl)n(CC4CNCCS4)c3n2)cc1F` (stereo not shown) [Example 8.1, 6-(2,6-Dichlorophenyl)-N-(3,4-difluorobenzyl)-7-(thiomorpholin-2-ylmethyl)-7H-pyrrolo[2,3-d]pyrimidin-2-amine], the IC50 was under 10 nM.
